US20200345637A1, “SUSPENSION COMPOSITIONS OF MULTI-TARGET INHIBITORS” (AIVIVA BIOPHARMA, INC., priority 2018, published 2020)
Converted amounts (≈) assume the structure as drawn. “And” between values parts separate entries of the source, which are not always exact repeats. Equal values may be shown once. Read-outs that look alike come from different tables or passages of the source.

Columns and labels:
[1] = Aqueous solubility of multi-target inhibitors; format: physicochemical; conditions: aqueous (not further specified)
Text: Non-limiting examples of the useful multi-target inhibitors and their physicochemical forms are given in Table 1 with aqueous solubility information.

[2] = Suspension physical testing: particle size, pH, osmolality, syringeability; format: physicochemical; set-up: API Raw Material PSD D50 / Formulated Suspension Particle size distribution D50 / API Raw Material PSD D90 / Formulated Suspension Particle size distribution D90: unit not given here; conditions: for Formulated Suspension Syringeability: needle gauge passed
Text: (§1) Examples 1-3 depict the results of physical testing of some subject formulations.

[3] = Terminal sterilization and stability assay of formulated suspension; format: physicochemical
Text: as §1

[4] = tested on: choroid neovascularization lesions; assay: Laser-induced choroid neovascularization model in rats; format: in vivo, Brown Norway rats; conditions: intravitreal injection 50 μg/eye; fluorescein angiography Day 22
Description: The tolerability, efficacy, and ocular distribution were evaluated in a laser-induced choroid neovascularization model in rats. […] In this 22-day study, effects of local administration of the multi-target (i.e., multi-target kinase) inhibitors nintedanib and lenvatinib were examined on the development of new vessels. Vehicle and positive control groups were included in the study. Female Brown Norway rats were divided into 7 separate treatment groups. On Day 1, laser treatments were performed on all animals using a 520 nm thermal laser to generate a total of three lesions per eye. […] On Day 3, bilateral intravitreal injections of vehicle, 5 μg/eye of rat anti-VEGF antibody, 50 μg/eye of nintedanib, or 50 μg/eye of lenvatinib were performed. On Day 22, fluorescein angiography was performed on all animals, and the lesion sizes/areas were determined using image analysis software (Image J). […] Concentrations of test compounds in ocular tissues and plasma were measured by LCMS-MS after intravitreal or eyedrop administration in rats. […] The eyedrop administration produced higher drug concentrations in the ocular surface, such as conjunctiva, than the intravitreal injection. Three times daily eyedrop administration maintained higher concentrations in plasma than a single intravitreal injection.

[5] = tested on: linear incision wound sites; assay: Intradermal injection along linear incision wounds, histological evaluation; format: in vivo, minipigs; conditions: for granulation tissue formation compared to vehicle treated control wounds / presence of myofibroblasts compared to vehicle treated control wounds: 2% suspension (sorafenib 1% suspension); for SMA staining / dermis fibrin / dermis fibroplasia / dermis provisional matrix / epidermis hyperplasia / inflammation / subcutis fibroplasia / subcutis mixed cell infiltrate: microscopic grade over 29 days
Description: The purpose of this study was to evaluate the suspension formulation when administered via intradermal injection with axitinib, nintedanib, sorafenib, and lenvatinib to the dorsal skin along linear incisions of minipigs.
Four male minipigs were dosed. Animals were dosed once via intradermal injection along the edges of each of 10 wound sites for each animal (5 wounds on each side of the dorsum [perpendicular to the spine], approximately 3 cm in length and 3 cm distance from the spine). Axitinib, nintedanib, lenvatinib, and the vehicle control article were administered via eight 0.1 mL intradermal injections around each respective wound site (one injection/cm on both sides of the wound), for a total volume of 0.8 mL/wound site. Sorafenib was administered via the same method at a volume of 0.2 mL/injection, for a total volume of 1.6 mL/wound site. The vehicle control article was Vehicle for Test Articles axitinib, nintedanib, lenvatinib, and sorafenib.
A generalized measure of inflammation, including inflammatory cell infiltrate, fibrin deposition, fibroplasia, epithelial hyperplasia and areas of tissue necrosis were assessed microscopically. […] For test agent treated wounds, all were graded as slight on Day 4, and there was no consistent difference over time as compared to the control group.

[6] = rabbit, in vivo; for tissue concentrations in the retina and choroid / depot and streaks in vitreous humor by fundus imaging / intravitreal dose remained in the vitreous humor: Dutch Belted
Description: (§2) This study evaluated the tolerability and dispersion of the formulations of nintedanib and lenvatinib over 42 days in the posterior segment of the eyes. A single 50 μL intravitreal administration of the 1% suspension was administered to Dutch Belted rabbits.

[7] = systemic; literature or US label; cited from earlier work
in vivo [8] = conditions: Dutch Belted, rabbit
Description: as §2

in vivo [9] = assay: in vivo; set-up: species or system New Zealand White rabbits; conditions: male, New Zealand White, rabbit
Description: Five to seven male New Zealand White rabbits were used per treatment group. Each eye received a 35 μl eyedrop of vehicle, or respective drugs (0.3%) three times daily for 10 days. After the last dose on Day 11, the animals were sacrificed and eyes were enucleated, and plasma and the ocular tissues were collected. Tissue and plasma concentrations of these compounds were measured by LC-MS/MS.

[10] = rabbit, in vivo
Description: (§3) This study evaluated the local tolerance of vehicle, axitinib, pirfenidone, sorafenib and lenvatinib and ocular distribution of axitinib, sorafenib and lenvatinib (0.3% w/w) when administered by topical ocular instillation in the eyes of New Zealand white rabbits (n=6 per group). […] On Dosing Day 5, the animals were sacrificed and eyes were enucleated. Ocular and plasma concentrations of select compounds were measured by LC-MS/MS.

in vivo [11] = conditions: New Zealand White, rabbit
Description: as §3

Compound	solubility [1]	API Raw Material PSD D50 [2]	API Raw Material PSD D90 [2]	Formulated Suspension Osmolality [2]	Formulated Suspension Particle size distribution D50 [2]	Formulated Suspension Particle size distribution D90 [2]	Formulated Suspension pH [2]	Formulated Suspension Syringeability [2]	Assay (% of labeled claim) of Formulated Suspension, Initial ([3]; Autoclave)	Assay (% of labeled claim) of Formulated Suspension, 4 months (40° C./75% RH) ([3]; Gamma irradiation)	Assay (% of labeled claim) of Formulated Suspension, 6 weeks (40° C./75% RH) ([3]; Gamma irradiation)	Assay (% of labeled claim) of Formulated Suspension, Initial ([3]; Gamma irradiation)	lesion sizes relative to vehicle-treated eyes [4]	granulation tissue formation compared to vehicle treated control wounds [5]	presence of myofibroblasts compared to vehicle treated control wounds [5]	SMA staining [5]	dermis fibrin [5]	dermis fibroplasia [5]	dermis provisional matrix [5]	epidermis hyperplasia [5]	also measured
COC(=O)c1ccc2c(c1)NC(=O)/C2=C(\Nc1ccc(N(C)C(=O)CN2CCN(C)CC2)cc1)c1ccccc1 [Nintedanib]	9 µg/mL (≈ 16.7 µM)	D50: 68	D90: 105	207 mOsm/kg	D50: 22	D90: 35	7.6	Pass 23G	96.0 % of labeled claim	90.0 % of labeled claim and 97.9 % of labeled claim	98.1 % of labeled claim and 99.7 % of labeled claim	101.8 % of labeled claim and 103.0 % of labeled claim	significantly reduced lesion sizes	delay in granulation tissue formation	prolonged presence of myofibroblasts	none to moderate	slight to moderate	none to slight	marked	minimal to moderate	inflammation [5]: slight to moderate; subcutis fibroplasia [5]: none to moderate; subcutis mixed cell infiltrate [5]: slight to marked; tissue concentrations in the retina and choroid [6]: higher than 1 μg/gm; depot and streaks in vitreous humor by fundus imaging ([6]; 42 days): remained present out to Day 42 postdose; intravitreal dose remained in the vitreous humor ([6]; 42 days): 4-7%; Concentrations in conjunctival tissue [6]: mostly under quantitation limit; terminal plasma half-life in man [7]: 9.5 h; concentration at 29 days (in vivo [8]): 0.252 ng/mL; concentration at 42 days (in vivo [8]): 0.348 ng/mL
COc1cc2nccc(Oc3ccc(NC(=O)NC4CC4)c(Cl)c3)c2cc1C(N)=O [Lenvatinib]	4 µg/mL (≈ 9.37 µM)	D50: 164	D90: 346	201 mOsm/kg	D50: 7	D90: 25	7.6	Pass 27G	99.0 % of labeled claim	99.8 % of labeled claim and 100.2 % of labeled claim	99.2 % of labeled claim and 99.8 % of labeled claim	101.4 % of labeled claim and 102.4 % of labeled claim	significantly reduced lesion sizes	delay in granulation tissue formation	prolonged presence of myofibroblasts	slight	minimal to slight	minimal to slight	marked to minimal	slight to none	lesion sizes relative to positive control, rat anti-VEGF [4]: significantly reduced lesion sizes; concentration at 11 day (after the last dose) (in vivo [9]): 98.5 ng/mL; inflammation [5]: slight to marked; subcutis fibroplasia [5]: moderate to minimal; subcutis mixed cell infiltrate [5]: slight to severe; tissue concentrations in the retina and choroid [6]: over 1 μg/gm; intravitreal dose remained in the vitreous humor ([6]; 29 days): 9-17%; depot and streaks in vitreous humor by fundus imaging ([6]; 42 days): remained present out to Day 42 postdose; intravitreal dose remained in the vitreous humor ([6]; 42 days): 3-9%; concentrations in the choroid and retina [10]: significant concentrations; drug concentrations in anterior tissues of conjunctiva, sclera and cornea [10]: high drug concentrations; terminal plasma half-life in man [7]: 30 h; concentration at 29 days (in vivo [8]): 4.94 ng/mL; concentration at 42 days (in vivo [8]): 3.91 ng/mL; concentration at 5 day of dosing (in vivo [11]): 131 ng/mL
